Measurements published in patent publication US9688624B2, “DP2 antagonist and uses thereof” (Brickell Biotech, Inc., priority 2010, dated 2017).

Experiments:
CYP2C19 = CYP2C19 (Homo sapiens (Human), UniProt P33261); test: Extracellular cytochrome P450 inhibition (microsomes); details: 2C19, mephenytoin 4′-hydroxylation
[1] = Metabolites of Compound 1 (active metabolites)
Protocol: Compound 1 metabolites formed during incubation of Compound 1 with rat, dog, and human liver microsomes, rat and human hepatocytes, as well as those generated in vivo and isolated from rat bile and rat and dog plasma have been investigated. Authentic standards of the majority of the metabolites have been chemically synthesized. The identity of the in vitro and in vivo metabolites were confirmed by comparison with the authentic standard and/or by the fragmentation pattern observed following LC-MS/MS analysis.

Sequence of CYP2C19 (P33261 whole entry): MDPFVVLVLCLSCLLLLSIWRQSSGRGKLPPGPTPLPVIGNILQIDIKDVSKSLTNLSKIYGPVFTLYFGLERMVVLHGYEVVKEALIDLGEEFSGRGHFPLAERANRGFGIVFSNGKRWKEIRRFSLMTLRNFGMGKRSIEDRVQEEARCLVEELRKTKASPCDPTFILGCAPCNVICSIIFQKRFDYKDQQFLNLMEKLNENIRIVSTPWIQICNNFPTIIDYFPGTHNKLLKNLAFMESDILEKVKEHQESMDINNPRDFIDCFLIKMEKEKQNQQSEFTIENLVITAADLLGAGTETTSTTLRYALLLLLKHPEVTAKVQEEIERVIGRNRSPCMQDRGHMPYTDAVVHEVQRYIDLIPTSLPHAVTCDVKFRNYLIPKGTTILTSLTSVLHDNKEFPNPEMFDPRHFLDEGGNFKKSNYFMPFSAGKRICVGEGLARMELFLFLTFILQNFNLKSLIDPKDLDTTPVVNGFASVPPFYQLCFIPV

SMILES | IC50 (CYP2C19) [µM] | activity of metabolite [1]
CCC1(c2ccccc2)C(=O)NC(=O)N(Cc2ccccc2)C1=O (single isomer, unassigned; (-)) [(-)-N-3-benzyl-phenobarbital, reference compound] | 8.7 | –
COc1ccc(CC(=O)O)cc1Oc1ccc(NC(=O)C(C)(C)C)cc1C[S+]([O-])C(C)(C)C (centres unmarked) [Compound M1, 2-(3-(2-(tert-butylsulfinylmethyl)-4-pivalamidophenoxy)-4-methoxyphenyl)acetic acid] | – | active
COc1ccc(CC(=O)O)cc1Oc1ccc(NC(=O)C(C)(C)C)cc1CS(=O)(=O)C(C)(C)C [Compound M2, 2-(3-(2-(tert-butylsulfonylmethyl)-4-pivalamidophenoxy)-4-methoxyphenyl)acetic acid] | – | active
CC(C)(C)SCc1cc(NC(=O)C(C)(C)C)ccc1Oc1cc(CC(=O)O)ccc1O [Compound M3, 2-(3-(2-(tert-butylthiomethyl)-4-pivalamidophenoxy)-4-hydroxyphenyl)acetic acid] | – | active
CC(C)(C)C(=O)Nc1ccc(Oc2cc(CC(=O)O)ccc2O)c(C[S+]([O-])C(C)(C)C)c1 (centres unmarked) [Compound M5, 2-(3-(2-(tert-butylsulfinylmethyl)-4-pivalamidophenoxy)-4-hydroxyphenyl)acetic acid] | – | active
